Reference: patent US8178506B2, “Oligomeric compounds and compositions for use in modulation of small non-coding RNAs” (Regulus Therapeutics Inc., priority 2003, dated 2012)
In the oligonucleotide strings, read from the 5' end, every base follows the letter of its sugar. An asterisk marks phosphorothioate; unmarked linkages are phosphodiester. Other units and linkages are bracketed, terminal groups are in braces. A string of capitals states the bases alone. e = 2'-O-(2-methoxyethyl) (MOE); [5mC] = 5-methylcytosine

Assays:
Assay type in all cases: cell-based, human
adipocytes = assay: Triglyceride accumulation assay in adipocytes
PPARγ = PPARγ mRNA expression in adipocytes (real-time PCR)
aP2 = aP2 mRNA expression in adipocytes (real-time PCR); details: for aP2 mRNA: differentiating adipocytes transfected with oligomeric compound, Table 75; for AP2 mRNA: differentiating adipocytes, control = treatment with ISIS 342673
HSL = HSL mRNA expression in adipocytes (real-time PCR)
Glut4 = Glut4 mRNA expression in adipocytes (real-time PCR)
[1] = differentiating adipocytes transfected with oligomeric compound, Table 75
[2] = Table 18, differentiating adipocytes, control = treatment with ISIS 342673
[3] = Table 17, differentiating adipocytes, control = treatment with ISIS 342673

Row | Substance | TG (triglyceride accumulation) (adipocytes; [1]) | PPAR gamma mRNA (PPARγ; [1]) | aP2 mRNA (aP2) | HSL mRNA (HSL; [1]) | GLUT4 mRNA (Glut4; [1]) | TG (triglyceride accumulation) (adipocytes; [2]) | PPAR gamma mRNA (PPARγ; [2]) | AP2 mRNA (aP2; Table 18) | HSL mRNA (HSL; [2]) | GLUT4 mRNA (Glut4; [2]) | TG (triglyceride accumulation) (adipocytes; [3]) | PPAR gamma mRNA (PPARγ; [3]) | AP2 mRNA (aP2; Table 17) | HSL mRNA (HSL; [3]) | GLUT4 mRNA (Glut4; [3])
1 | 341791 (antisense GCUUCCAGUCGAGGAUGUUUACA; all 2'-MOE, all phosphorothioate, methylation of C and T or U not given here) [compound 341791] | 50 percentage of untreated control (UTC) | 75 percentage of untreated control (UTC) | 80 percentage of untreated control (UTC) | 72 percentage of untreated control (UTC) | 47 percentage of untreated control (UTC) | – | – | – | – | – | – | – | – | – | –
2 | 344616 (AGAGGUCGACCGUGUAAUGUGC; anti-miR; all 2'-MOE, all phosphorothioate, methylation of C and T or U not given here) [compound 344616] | 32 percentage of untreated control (UTC) | 36 percentage of untreated control (UTC) | 26 percentage of untreated control (UTC) | 23 percentage of untreated control (UTC) | 2 percentage of untreated control (UTC) | – | – | – | – | – | – | – | – | – | –
3 | 344612 (ACGGAAGGGCAGAGAGGGCCAG; anti-miR; all 2'-MOE, all phosphorothioate, methylation of C not given here) [compound 344612] | 69 percentage of untreated control (UTC) | 62 percentage of untreated control (UTC) | 72 percentage of untreated control (UTC) | 59 percentage of untreated control (UTC) | 40 percentage of untreated control (UTC) | – | – | – | – | – | – | – | – | – | –
4 | 348116 (UUCGCCCUCUCAACCCAGCUUUU; anti-miR; all 2'-MOE, all phosphorothioate, methylation of C and T or U not given here) [compound 348116] | 43 percentage of untreated control (UTC) | 76 percentage of untreated control (UTC) | 79 percentage of untreated control (UTC) | 58 percentage of untreated control (UTC) | 48 percentage of untreated control (UTC) | – | – | – | – | – | – | – | – | – | –
5 | 328103 (antisense e[5mC]*e[5mC]*e[5mC]*eA*eA*eT*eA*eT*e[5mC]*eA*eA*eA*e[5mC]*eA*eT*eA*eT*e[5mC]*eA) [compound 328103] | 113 percentage of untreated control (UTC) | 83 percentage of untreated control (UTC) | 96 percentage of untreated control (UTC) | 87 percentage of untreated control (UTC) | 86 percentage of untreated control (UTC) | 110.2 percentage of control | 74.3 percentage of control | 83.2 percentage of control | 82.5 percentage of control | 94.3 percentage of control | – | – | – | – | –
6 | 328095 (antisense eT*e[5mC]*eA*e[5mC]*eA*eG*eA*eG*eA*eA*eA*eA*e[5mC]*eA*eA*e[5mC]*eT*eG*eG*eT*eA) [compound 328095] | 110 percentage of untreated control (UTC) | 92 percentage of untreated control (UTC) | 70 percentage of untreated control (UTC) | 83 percentage of untreated control (UTC) | 98 percentage of untreated control (UTC) | – | – | – | – | – | – | – | – | – | –
7 | 328127 (antisense eA*eA*e[5mC]*eG*eA*eT*eA*eA*eA*eA*e[5mC]*eA*eT*eA*e[5mC]*eT*eT*eG*eT*e[5mC]*eA) [compound 328127] | 81 percentage of untreated control (UTC) | 85 percentage of untreated control (UTC) | 95 percentage of untreated control (UTC) | 93 percentage of untreated control (UTC) | 75 percentage of untreated control (UTC) | – | – | – | – | – | 74.5 percentage of control | 77.6 percentage of control | 86.9 percentage of control | 89.7 percentage of control | 80.8 percentage of control
8 | 344269 (antisense UAACCGAUUUCAAAUGGUGCUA; all 2'-MOE, all phosphorothioate, methylation of C and T or U not given here) [compound 344269] | 42 percentage of untreated control (UTC) | 48 percentage of untreated control (UTC) | 41 percentage of untreated control (UTC) | 35 percentage of untreated control (UTC) | 28 percentage of untreated control (UTC) | – | – | – | – | – | – | – | – | – | –
9 | 340360 (antisense GCAACUUAGUAAUGUGCAAUA; all 2'-MOE, all phosphorothioate, methylation of C and T or U not given here) [compound 340360] | 106 percentage of untreated control (UTC) | 96 percentage of untreated control (UTC) | 102 percentage of untreated control (UTC) | 102 percentage of untreated control (UTC) | 91 percentage of untreated control (UTC) | – | – | – | – | – | – | – | – | – | –
10 | 346686 (CUUCAGUUAUCACAGUACUGUA; all 2'-MOE, all phosphorothioate, methylation of C and T or U not given here) [compound 346686] | 73 percentage of untreated control (UTC) | 83 percentage of untreated control (UTC) | 83 percentage of untreated control (UTC) | 80 percentage of untreated control (UTC) | 73 percentage of untreated control (UTC) | – | – | – | – | – | – | – | – | – | –
11 | 328124 (antisense eA*eG*e[5mC]*eA*eG*eG*eT*eG*eA*eA*eG*eG*e[5mC]*eA*e[5mC]*e[5mC]*eT*eG*eG*e[5mC]*eT) [compound 328124] | 108 percentage of untreated control (UTC) | 92 percentage of untreated control (UTC) | 118 percentage of untreated control (UTC) | 96 percentage of untreated control (UTC) | 105 percentage of untreated control (UTC) | – | – | – | – | – | 99.1 percentage of control | 90.4 percentage of control | 101.8 percentage of control | 103.6 percentage of control | 122.7 percentage of control
12 | 344276 (antisense CAGGCAUAGGAUGACAAAGGGAA; all 2'-MOE, all phosphorothioate, methylation of C and T or U not given here) [compound 344276] | 66 percentage of untreated control (UTC) | 72 percentage of untreated control (UTC) | 72 percentage of untreated control (UTC) | 68 percentage of untreated control (UTC) | 49 percentage of untreated control (UTC) | – | – | – | – | – | – | – | – | – | –
13 | 346908 (GCUUUGACAAUACUAUUGCACUG; all 2'-MOE, all phosphorothioate, methylation of C and T or U not given here) [compound 346908] | 75 percentage of untreated control (UTC) | 77 percentage of untreated control (UTC) | 77 percentage of untreated control (UTC) | 71 percentage of untreated control (UTC) | 65 percentage of untreated control (UTC) | – | – | – | – | – | – | – | – | – | –
